Drawing on DBAASP, this text covers MIC for eleven molecules.

Some test systems named below: Escherichia coli; Staphylococcus aureus; Escherichia coli UB1005; Pseudomonas aeruginosa; Acinetobacter baumannii; Bacillus subtilis; Escherichia coli B; Bacillus subtilis 168.
Common to all, as to assay: ≥ marks a high value that may be exact or a test limit, other limits are often not marked, values filed in µg/mL are converted to µM
Assay [1] has as its system Salmonella enterica subsp. enterica serovar Typhimurium C77-31.
Assay [2] deals with Staphylococcus aureus ATCC 29213.
The test system of assay [3] is Escherichia coli ATCC 25922.
Assay [4] concerns Staphylococcus aureus ATCC 25923.
The test system of assay [5] is Staphylococcus epidermidis ATCC 12228.
For assay [6], the system named is Staphylococcus aureus ATCC 2592.
The subject of assay [7] is Staphylococcus aureus ATCC 33591.
For assay [8], the system named is Candida albicans ATCC 2002.
Assay [9] relates to Bacillus subtilis ATCC 6633.
In assay [10] the test system is Klebsiella pneumoniae ATCC 700603.
Assay [11] concerns Pseudomonas aeruginosa ATCC 9027.

In brackets after ≈: the same amount, converted by molar mass.

As to `CC(C)[C@H](NC(=O)[C@H](CCCN=C(N)N)NC(=O)[C@H](Cc1c[nH]c2ccccc12)NC(=O)[C@H](CCCN=C(N)N)NC(=O)[C@@H](NC(=O)[C@H](CCCCN)NC(=O)[C@H](Cc1c[nH]c2ccccc12)NC(=O)[C@H](CCCN=C(N)N)NC(=O)[C@@H](NC(=O)[C@H](CCCN=C(N)N)NC(=O)[C@@H](N)Cc1c[nH]c2ccccc12)C(C)C)C(C)C)C(=O)N[C@@H](CCCCN)C(N)=O` [WRVRWKVRWRVK], the MIC is 2 µM (≈ 3.51 µg/mL) in [1]; 1 µM (≈ 1.75 µg/mL) in assay [2]; 4 µM (≈ 7.02 µg/mL) in [3]; 2 µM (≈ 3.51 µg/mL) in [4]; 1 µM (≈ 1.75 µg/mL) in the assay on Escherichia coli; 2 µM (≈ 3.51 µg/mL) in [5]. In addition, the minimum inhibitory concentration (MIC) in the assay on Staphylococcus aureus came out at 2 µM (≈ 3.51 µg/mL); with Escherichia coli UB1005 it was 2 µM (≈ 3.51 µg/mL); with Pseudomonas aeruginosa it was 4 µM (≈ 7.02 µg/mL); against Acinetobacter baumannii, 2.83 µM (≈ 4.96 µg/mL).

Turning to `CC(C)C[C@H](NC(=O)[C@H](CCCN=C(N)N)NC(=O)[C@H](Cc1c[nH]c2ccccc12)NC(=O)[C@H](CCCN=C(N)N)NC(=O)[C@@H](NC(=O)[C@H](CCCN=C(N)N)NC(=O)[C@H](Cc1c[nH]c2ccccc12)NC(=O)[C@H](CCCN=C(N)N)NC(=O)[C@H](CC(C)C)NC(=O)[C@H](CCCN=C(N)N)NC(=O)[C@@H](N)Cc1c[nH]c2ccccc12)[C@@H](C)O)C(=O)N[C@@H](CCCN=C(N)N)C(N)=O` [WRLRWRTRWRLR], the minimal inhibitory concentration (MIC) in assay [1] was determined as 4 µM (≈ 7.36 µg/mL); in [2] it was 2 µM (≈ 3.68 µg/mL); in assay [3], 4 µM (≈ 7.36 µg/mL); in assay [4], 2 µM (≈ 3.68 µg/mL); in the assay with Escherichia coli it was 2 µM (≈ 3.68 µg/mL); in assay [5] it was 2 µM (≈ 3.68 µg/mL). The MIC in the assay with Staphylococcus aureus worked out at 2 µM (≈ 3.68 µg/mL); against Escherichia coli UB1005, 4 µM (≈ 7.36 µg/mL); in the assay with Pseudomonas aeruginosa it was 16 µM (≈ 29.4 µg/mL); against Acinetobacter baumannii it was 4 µM (≈ 7.36 µg/mL).

Regarding `CC[C@H](C)[C@@H]1NC(=O)[C@H](CO)NC(=O)[C@H](CCCCN)NC(=O)[C@H]([C@@H](C)O)NC(=O)[C@H](Cc2c[nH]c3ccccc23)NC(=O)[C@@H](NC(=O)CN)CSSC[C@@H](C(=O)N[C@@H](Cc2ccccc2)C(=O)O)NC(=O)[C@@H]2CCCN2C(=O)[C@H](CCCCN)NC(=O)[C@@H]2CCCN2C(=O)[C@@H]2CCCN2C1=O` [GCWTKSIPPKPCF], the MIC in assay [6] came to 2.22 µM (≈ 3.25 µg/mL). This counts as single-digit micromolar.

Consider `CC[C@H](C)[C@H](N)C(=O)N[C@@H](CC(N)=O)C(=O)N[C@@H](Cc1c[nH]c2ccccc12)C(=O)N[C@@H](CO)C(=O)N[C@@H](CCCCN)C(=O)N[C@H](C(=O)N[C@@H](Cc1ccccc1)C(=O)N[C@@H](CCC(=O)O)C(=O)N[C@@H](CCCCN)C(=O)N[C@H](C(=O)N[C@@H](CCCCN)C(=O)N[C@@H](CC(N)=O)C(=O)N[C@@H](CC(C)C)C(=O)N[C@H](C(N)=O)C(C)C)C(C)C)[C@@H](C)CC` [INWSKIFEKVKNLV], for which the figures for the minimum inhibitory concentration (MIC) in the assay on Escherichia coli and against Bacillus subtilis were 12.5 µM (≈ 21.5 µg/mL) and 17 µM (≈ 29.2 µg/mL), respectively.

As for `CC[C@H](C)[C@H](NC(=O)[C@@H](N)CCCCN)C(=O)N[C@@H](Cc1c[nH]c2ccccc12)C(=O)N[C@@H](Cc1ccccc1)C(=O)N[C@@H](CCC(N)=O)C(=O)N[C@@H](CC(N)=O)C(=O)N[C@@H](CCCCN)C(=O)N[C@@H](CCCCN)C(=O)N[C@@H](CCSC)C(=O)N[C@@H](CCCCN)C(=O)N[C@@H](Cc1c[nH]c2ccccc12)C(=O)N[C@@H](CCCCN)C(=O)N[C@@H](CCCCN)C(N)=O` [KIWFQNKKMKWKK], the MIC in assay [7] is no less than 256 µM; in assay [3] it was 256 µM (≈ 459 µg/mL).

In the case of `CC[C@H](C)[C@H](NC(=O)CNC(=O)CNC(=O)[C@H](C)NC(=O)[C@H](CCCCN)NC(=O)[C@H](C)N)C(=O)NCC(=O)NCC(=O)N[C@@H](Cc1cnc[nH]1)C(=O)N[C@H](C(=O)N[C@H](C(=O)NCC(=O)N[C@@H](CCC(N)=O)C(=O)N[C@H](C(=O)N[C@H](C(=O)NCC(=O)N[C@H](C(=O)N[C@@H](CCCN=C(N)N)C(=O)N[C@H](C(=O)N[C@@H](CCCN=C(N)N)C(=O)NCC(=O)N[C@@H](CC(C)C)C(=O)NCC(=O)NCC(=O)N[C@@H](CC(N)=O)C(=O)N[C@H](C(=O)O)C(C)C)[C@@H](C)CC)C(C)C)C(C)C)[C@@H](C)CC)[C@@H](C)CC)C(C)C` [AKAGGIGGHVIGQIVGVRIRGLGGNV], the minimum inhibitory concentration (MIC) in assay [6] is 2.57 µM (≈ 6.3 µg/mL); in assay [3], 20.4 µM (≈ 50 µg/mL); in assay [8], 20.4 µM (≈ 50 µg/mL).

In the case of `CC[C@H](C)[C@H](NC(=O)[C@H](CCCN=C(N)N)NC(=O)[C@@H](NC(=O)[C@@H]1CCCN1C(=O)[C@@H](NC(=O)[C@@H](NC(=O)[C@H](CCC(N)=O)NC(=O)[C@@H]1CCCN1C(=O)[C@@H](NC(=O)[C@@H](NC(=O)[C@H](Cc1cnc[nH]1)NC(=O)[C@@H]1CCCN1C(=O)[C@@H]1CCCN1C(=O)[C@@H](NC(=O)CNC(=O)CNC(=O)[C@H](C)NC(=O)[C@H](CCCCN)NC(=O)[C@H](C)N)[C@@H](C)CC)C(C)C)[C@@H](C)CC)[C@@H](C)CC)C(C)C)C(C)C)C(=O)N[C@@H](CCCN=C(N)N)C(=O)N1CCC[C@H]1C(=O)N[C@@H](CC(C)C)C(=O)N[C@@H](CS)C(=O)NCC(=O)N[C@@H](CC(N)=O)C(=O)N[C@H](C(=O)O)C(C)C` [AKAGGIPPHVIPQIVPVRIRPLCGNV], the minimum inhibitory concentration (MIC) came out at 4.66 µM (≈ 12.6 µg/mL) in assay [6], 18.5 µM (≈ 50 µg/mL) in assay [3] and 9.25 µM (≈ 25 µg/mL) in [8].

In the assay with Bacillus subtilis, `CC[C@H](C)[C@@H]1NC(=O)[C@@H]2CSSC[C@@H]3NC(=O)[C@H](Cc4ccccc4)NC(=O)[C@H](CO)NC(=O)[C@H](CO)NC(=O)[C@H](C(C)C)NC(=O)[C@H](C(C)C)NC(=O)[C@@H]4CCCN4C(=O)[C@@H](NC(=O)[C@H](CCSC)NC(=O)[C@H](Cc4ccc(O)cc4)NC(=O)[C@H](CCC(=O)O)NC(=O)[C@H](CO)NC(=O)[C@H](CCCCN)NC(=O)[C@H](CC(N)=O)NC(=O)[C@H](CC(C)C)NC(=O)[C@@H](NC(=O)[C@H](CCC(=O)O)NC(=O)[C@H](CCCCN)NC(=O)[C@@H](NC(=O)[C@H](CCCCN)NC(=O)[C@H](CC(=O)O)NC(=O)[C@@H](NC(=O)[C@H](C)NC(=O)[C@H](CCC(N)=O)NC(=O)[C@H](CC(N)=O)NC(=O)[C@H](CC(C)C)NC(=O)[C@H](CCCCN)NC(=O)[C@H](CCCCN)NC(=O)[C@H](CCCCN)NC(=O)[C@H](CC(C)C)NC(=O)[C@H](CCCCN)NC(=O)[C@H](CCC(N)=O)NC(=O)CNC(=O)[C@@H](NC(=O)[C@@H](NC(=O)[C@H](CO)NC(=O)[C@@H](N)CCCCN)[C@@H](C)O)C(C)C)C(C)C)C(C)C)C(C)C)CSSC[C@H](NC(=O)[C@H](CCC(N)=O)NC(=O)CNC(=O)[C@H](CO)NC(=O)[C@H](CCCCN)NC(=O)CNC(=O)[C@H](CC(C)C)NC(=O)[C@H](CCCN=C(N)N)NC(=O)[C@H](C)NC(=O)[C@H](CSSC[C@@H](C(=O)O)NC1=O)NC(=O)[C@H](Cc1cnc[nH]1)NC(=O)[C@H](CCC(N)=O)NC(=O)[C@H](CCCCN)NC3=O)C(=O)N[C@@H](CC(=O)O)C(=O)N[C@@H](CC(C)C)C(=O)N[C@@H](CC(C)C)C(=O)N[C@@H](CCC(=O)O)C(=O)N2` [KSTVGQKLKKKLNQAVDKVKEVLNKSEYMCPVVSSFCKQHCARLGKSGQCDLLECIC] showed a minimal inhibitory concentration (MIC) of 0.5 µM (≈ 3.17 µg/mL).

On to `CC[C@H](C)[C@H](NC(=O)[C@H](CCCCN)NC(=O)[C@@H]1CCCN1C(=O)[C@H](CC(C)C)NC(=O)[C@@H](NC(=O)[C@H](CO)NC(=O)CNC(=O)[C@H](CC(C)C)NC(=O)[C@H](C)NC(=O)CNC(=O)[C@H](CC(C)C)NC(=O)[C@@H](NC(=O)[C@H](CC(C)C)NC(=O)[C@@H]1CCCN1C(=O)[C@H](Cc1ccccc1)NC(=O)[C@@H](N)Cc1ccccc1)C(C)C)[C@@H](C)CC)C(=O)N[C@@H](Cc1ccccc1)C(N)=O` [FFPLVLGALGSILPKIF], for which the MIC in [6] turned out to be 10.9 µM (≈ 20 µg/mL); in [9], 5.46 µM (≈ 9.99 µg/mL).

Turning to `CC[C@H](C)[C@H](NC(=O)[C@H](C)N)C(=O)N[C@@H](CC(C)C)C(=O)N[C@@H](CCCN=C(N)N)C(=O)N[C@@H](CCCCN)C(=O)N[C@@H](C)C(=O)N[C@H](C(=O)N[C@@H](CCCN=C(N)N)C(=O)N[C@@H](CCCN=C(N)N)C(=O)N[C@@H](CC(C)C)C(=O)N[C@H](C(=O)N[C@@H](CCCCN)C(=O)N[C@@H](CC(C)C)C(=O)N[C@H](C(=O)N[C@H](C(N)=O)C(C)C)[C@@H](C)CC)C(C)C)[C@@H](C)O` [AILRKATRRLVKLIV], the MIC in assay [10] is greater than 25 µM; in assay [3], 20 µM (≈ 35 µg/mL); in assay [4] it was greater than 25 µM; in assay [11], 20 µM (≈ 35 µg/mL); against Acinetobacter baumannii, 6.25 µM (≈ 10.9 µg/mL).

Turning to `CC[C@H](C)[C@H](NC(=O)[C@H](CCCCN)NC(=O)[C@H](CO)NC(=O)[C@H](Cc1c[nH]c2ccccc12)NC(=O)[C@H](CCSC)NC(=O)CN)C(=O)N[C@@H](CC(C)C)C(=O)NCC(=O)N[C@@H](Cc1cnc[nH]1)C(=O)N[C@@H](CC(C)C)C(=O)N[C@@H](CCCCN)C(=O)N[C@@H](CCCN=C(N)N)C(N)=O` [GMWSKILGHLKR], the minimal inhibitory concentration (MIC) was 28.3 µM (≈ 40.3 µg/mL) against Escherichia coli B, 100 µM (≈ 142 µg/mL) in the assay with Staphylococcus aureus, 2.2 µM (≈ 3.13 µg/mL) in the assay on Bacillus subtilis 168 and 93 µM (≈ 133 µg/mL) in the assay with Pseudomonas aeruginosa.
